Experimental findings from the supplement of paper PMC11424490 are described below.

Common to all, as to experiment: combination cScore with sotorasib (Bliss gap around IC50) (%PoC); higher = stronger additive effect
One test deals with SW837. A digest of the protocol: (§1)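 NCI-H2122, NCI-H358 and SW837 cells were plated in 384-well plates at 500 or 800 cells per well, treated with concentration matrices after 24 h, and grown for 72 h (SW837 for 144 h). Luminescence from CellTiter-Glo was expressed as percent of control relative to vehicle wells and fitted with four-parameter curves. The score is the mean Bliss-independence gap, expected minus measured viability, across a field around both monotherapy IC50 values, or across the top concentrations where no IC50 was reached.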

The test system of the next test is NCI-H2122. A digest of the protocol: as §1
A further test has as its system NCI-H358. A digest of the protocol: as §1

Consider `CC(C)N(CCCNC(=O)Nc1ccc(C(C)(C)C)cc1)C[C@H]1O[C@@H](n2ccc3c(N)ncnc32)[C@H](O)[C@@H]1O` + C=CC(=O)N1CCN(c2nc(=O)n(-c3c(C)ccnc3C(C)C)c3nc(-c4c(O)cccc4F)c(F)cc23)[C@@H](C)C1 [sotorasib], for which the “combination cScore with sotorasib” value in the test on SW837 came to 1.84; in the test with NCI-H2122, 8.67; in the test with NCI-H358, 2.07.
In the same order, the values of `CNS(=O)(=O)Nc1nccc(Cc2c(C)c3ccc(Oc4ncccn4)cc3oc2=O)c1F` + C=CC(=O)N1CCN(c2nc(=O)n(-c3c(C)ccnc3C(C)C)c3nc(-c4c(O)cccc4F)c(F)cc23)[C@@H](C)C1 [sotorasib] are 5.63, 8.14 and 4.31.
Consider `COc1ncc(-c2ccc3nccc(-c4ccnnc4)c3c2)cc1NS(=O)(=O)c1ccc(F)cc1F` + C=CC(=O)N1CCN(c2nc(=O)n(-c3c(C)ccnc3C(C)C)c3nc(-c4c(O)cccc4F)c(F)cc23)[C@@H](C)C1 [sotorasib], for which the “combination cScore with sotorasib” value in the test on SW837 turned out to be 8.72; in the test on NCI-H2122, 20.8; with NCI-H358 it was 5.96.
Turning to `C[C@@H]1CN(CC(=O)Nc2ccc3c(c2)Cc2cccc(-c4cc(=O)cc(N5CCOCC5)o4)c2S3)C[C@H](C)O1` + C=CC(=O)N1CCN(c2nc(=O)n(-c3c(C)ccnc3C(C)C)c3nc(-c4c(O)cccc4F)c(F)cc23)[C@@H](C)C1 [sotorasib], the figures for the “combination cScore with sotorasib” value with SW837, in the test on NCI-H2122 and in the test with NCI-H358 were 9.38, 17.1 and 5.09, respectively.
In the same order, the values of `Cc1c(-c2c(-c3ccc(F)o3)sc3ncnc(O[C@H](Cc4ccccc4OCc4ccnn4CC(F)(F)F)C(=O)O)c23)ccc(OCCN2CCN(C)CC2)c1Cl` + C=CC(=O)N1CCN(c2nc(=O)n(-c3c(C)ccnc3C(C)C)c3nc(-c4c(O)cccc4F)c(F)cc23)[C@@H](C)C1 [sotorasib] are 2.8, 10.4 and 4.06.
Regarding `Cc1c(Cn2c(C)nc3c(C(=O)O)cc(N4CCOCC4)cc32)cccc1C(F)(F)F` + C=CC(=O)N1CCN(c2nc(=O)n(-c3c(C)ccnc3C(C)C)c3nc(-c4c(O)cccc4F)c(F)cc23)[C@@H](C)C1 [sotorasib], the “combination cScore with sotorasib” value with SW837 was 9.96; in the test on NCI-H2122 it was 5.26; in the test on NCI-H358, -2.39.
The like results for `Cc1cc(C)c(CNC(=O)c2cc(-c3ccc(N4CCNCC4)nc3)cc3c2c(C)cn3C2CCCC2)c(=O)[nH]1` + C=CC(=O)N1CCN(c2nc(=O)n(-c3c(C)ccnc3C(C)C)c3nc(-c4c(O)cccc4F)c(F)cc23)[C@@H](C)C1 [sotorasib] were, in that order, 1.67, 10.7 and 2.26.
As to `Cc1nc(Nc2n[nH]c3c2CN(C(=O)N[C@H](CN(C)C)c2ccccc2)C3(C)C)c2sccc2n1` + C=CC(=O)N1CCN(c2nc(=O)n(-c3c(C)ccnc3C(C)C)c3nc(-c4c(O)cccc4F)c(F)cc23)[C@@H](C)C1 [sotorasib], the “combination cScore with sotorasib” value in the test on SW837 was 4.19; with NCI-H2122, 17.5; in the test on NCI-H358, -0.36.
The like results for `O=C(C1CC1)N1CC[C@@H](Cn2c(-c3ccc(-c4ccc5occc5c4)cc3)nc3cnccc32)C1` + C=CC(=O)N1CCN(c2nc(=O)n(-c3c(C)ccnc3C(C)C)c3nc(-c4c(O)cccc4F)c(F)cc23)[C@@H](C)C1 [sotorasib] were, in that order, 13.8, 14.4 and 1.
Turning to `O=c1cc(-c2cccc3c2Sc2ccccc2S3)oc(N2CCOCC2)c1` + C=CC(=O)N1CCN(c2nc(=O)n(-c3c(C)ccnc3C(C)C)c3nc(-c4c(O)cccc4F)c(F)cc23)[C@@H](C)C1 [sotorasib], the “combination cScore with sotorasib” value turned out to be 10.6 in the test with SW837, 11.2 with NCI-H2122 and 12.9 in the test with NCI-H358.
As for `CC1(C)CCC(c2ccc(Cl)cc2)=C(CN2CCN(c3ccc(C(=O)NS(=O)(=O)c4ccc(N[C@H](CCN5CCOCC5)CSc5ccccc5)c(S(=O)(=O)C(F)(F)F)c4)cc3)CC2)C1` [ABT-263] + C=CC(=O)N1CCN(c2nc(=O)n(-c3c(C)ccnc3C(C)C)c3nc(-c4c(O)cccc4F)c(F)cc23)[C@@H](C)C1 [sotorasib], the “combination cScore with sotorasib” value was found to be 20.7 in the test on SW837, 15.1 in the test on NCI-H2122 and 2.08 with NCI-H358.
In the same order, the values of `COc1cc(CCc2cc(NC(=O)c3ccc(N4CC(C)NC(C)C4)cc3)n[nH]2)cc(OC)c1` (centres undefined) [AZD4547] + C=CC(=O)N1CCN(c2nc(=O)n(-c3c(C)ccnc3C(C)C)c3nc(-c4c(O)cccc4F)c(F)cc23)[C@@H](C)C1 [sotorasib] are 8.33, 11.8 and 5.01.
In the same order, the values of `CCN(CCCOc1ccc2c(Nc3cc(CC(=O)Nc4cccc(F)c4)[nH]n3)ncnc2c1)CCOP(=O)(O)O` [AZD-1152] + C=CC(=O)N1CCN(c2nc(=O)n(-c3c(C)ccnc3C(C)C)c3nc(-c4c(O)cccc4F)c(F)cc23)[C@@H](C)C1 [sotorasib] are 9.37, 11.3 and 1.15.
As for `CCN1CCN(Cc2ccc(Nc3ncc(F)c(-c4cc(F)c5nc(C)n(C(C)C)c5c4)n3)nc2)CC1` [Abemaciclib] + C=CC(=O)N1CCN(c2nc(=O)n(-c3c(C)ccnc3C(C)C)c3nc(-c4c(O)cccc4F)c(F)cc23)[C@@H](C)C1 [sotorasib], the “combination cScore with sotorasib” value with SW837 turned out to be 19.6; in the test on NCI-H2122, 9.29; in the test on NCI-H358 it was 6.78.
The like results for `CN(C)C/C=C/C(=O)Nc1cc2c(Nc3ccc(F)c(Cl)c3)ncnc2cc1O[C@H]1CCOC1` [Afatinib] + C=CC(=O)N1CCN(c2nc(=O)n(-c3c(C)ccnc3C(C)C)c3nc(-c4c(O)cccc4F)c(F)cc23)[C@@H](C)C1 [sotorasib] were, in that order, 20.1, 22.8 and 11.4.
In the case of `COc1cc2nc(C)nc(N[C@H](C)c3cc(N)cc(C(F)(F)F)c3)c2cc1O[C@H]1CCOC1` [BI-3406 (SOSi)] + C=CC(=O)N1CCN(c2nc(=O)n(-c3c(C)ccnc3C(C)C)c3nc(-c4c(O)cccc4F)c(F)cc23)[C@@H](C)C1 [sotorasib], the “combination cScore with sotorasib” value was found to be 9.14 with SW837, 28.9 with NCI-H2122 and 13 in the test on NCI-H358.
For `Nc1cc(C(F)(F)F)c(-c2cc(N3CCOCC3)nc(N3CCOCC3)n2)cn1` [BKM120] + C=CC(=O)N1CCN(c2nc(=O)n(-c3c(C)ccnc3C(C)C)c3nc(-c4c(O)cccc4F)c(F)cc23)[C@@H](C)C1 [sotorasib], the “combination cScore with sotorasib” value with SW837 came out at 15.9; with NCI-H2122 it was 16.9; with NCI-H358, 4.4.
Consider `Cc1nc(NC(=O)N2CCC[C@H]2C(N)=O)sc1-c1ccnc(C(C)(C)C(F)(F)F)c1` [BYL-719] + C=CC(=O)N1CCN(c2nc(=O)n(-c3c(C)ccnc3C(C)C)c3nc(-c4c(O)cccc4F)c(F)cc23)[C@@H](C)C1 [sotorasib], for which the entries for the “combination cScore with sotorasib” value in the test on SW837, in the test with NCI-H2122 and in the test on NCI-H358 were 24.4, 24.8 and 5.72, respectively.
